Experimental data published in patent publication US9663789B2, “PME-1 as a biomarker to predict and diagnose endometrial and breast cancer and gene silencing of PME-1 to inhibit epithelial to mesenchymal transition” (MEDICAL DIAGNOSTIC LABORATORIES, LLC, priority 2013, dated 2017).
Entries after “also recorded” stand apart in the source; their conditions may differ.

Tests used:
Type in all cases: cell-based, human
[1] = tested on: ERK; test: Western analysis of phospho-ERK in RL95-2 cells; details: RL95-2, compared to control cells
Method: (§1) 15 μg of protein was used for western analysis. PME-1 antibody (Santa Cruz) and COXIV (Cell Signaling Technologies) were used for detection of proteins and the blots were developed using chemiluminescence (Pierce ECL Western Blotting Substrate—Thermo Scientific) on the GE ImageQuant LAS 4000. For analysis of Akt, ERK, and β-catenin signaling in tissue culture, western analyses were completed as follows. RL95-2 cells stably infected with lentivirus expressing constructs were selected with puromycin (Invivogen). The cells were incubated with either 50 μM Akt inhibitor (LY 294002, Cell Signaling Technologies) or 40 μM ERK inhibitor (V0126, Cell Signaling Technologies) for 1-2 hours at 37° C. 1.5× Laemelli buffer (0.5 M Tris pH6.8, […], 10% sodium dodecyl sulfate, 100 mM EDTA) was used to prepare cell lysates. 20 μg of protein was used for western analysis. Primary antibodies used were: P-Akt (Ser473), P-Akt (Thr308), pan-Akt, P-ERK (Thr202/204), total ERK (Cell Signaling Technologies), PME-1 (Santa Cruz), phospho-β-catenin (Ser45, Cell Signaling Technologies), phospho-β-catenin (Ser33/37/Thr41, Cell Signaling Technologies), β-catenin (Abcam), DcR2 (Abcam), and GAPDH (Abcam). All experiments were repeated several times with similar results.

[2] = tested on: RL95-2 cells; test: Immunofluorescence of mitotic cells (phosphorylated histone H3 Ser10); details: RL95-2, compared to control cells
Method: Endometrial cancer cells were stained for phosphorylated histone H3 on serine 10, a marker of mitotic cells, followed by counterstaining with DAPI (FIG. 12) to identify all cells.
For analysis of patient samples, tissues were blocked for 2 hours with 10% FBS in TBST for at RT, incubated with each primary antibody (together) overnight at 4° C., washed three times for 15 min in TBST, incubated with each secondary fluorescent antibody (together) for 1 hr at RT, washed again as above, stained with DAPI and mounted with cover-slips using vectashield mounting media (Vector Labs). Primary antibodies used were for PME-1 (Santa Cruz), E-cadherin (Millipore), and vimentin (Genscript). 1×10^3RL95-2 cells were plated on a chamber slide and were incubated overnight at 37° C. Slides were fixed with 4% paraformaldehyde (PFA) on ice for two hours. The cells were incubated with the primary antibody to Histone 3 (pH3) phosphorylated at Ser10 (1:200, Cell Signaling Technologies) overnight and developed with the secondary anti-rabbit Alexa-Fluor 555 antibody (Cell Signaling Technologies). DAPI was used as a nuclear counter-stain (Sigma Aldrich). Images were taken with the Nikon Eclipse TE2000 at 20×.

[3] = tested on: SFRP1; test: qRT-PCR of SFRP1 expression in RL95-2 cells; details: RL95-2, qRT-PCR normalized to 18S
Method: Using RL95-2 endometrial cancer cells, we overexpressed PME-1 (FIG. 21A) or depleted PME-1 with shRNA targeted to PME-1 (SEQ ID NO: 2) (FIG. 21B) and confirmed that PME-1 was appropriately expressed.
Total RNA was extracted with Qiagen RNAEasy kit from RL95-2 cells. cDNA was synthesized using 500 ng-1 μg of RNA and SuperScript VILO c-DNA mix (Life Technologies). Taqman probes and PCR-mix were purchased from Life Technologies. All samples were run in triplicates. Results are representative of three independent experiments in which genes of interest were normalized to the house-keeping gene, 18S or GAPDH, where fold-change was calculated using the ddCt method.

[4] = tested on: RL95-2 cells; test: Colony forming / invasive growth assay in Matrigel
Method: To determine if PME-1 contributes to the more invasive and metastatic phenotypes, we performed a colony forming assay in matrigel.
The 3D On Top Matrigel Assay was completed in 24 well dishes. Briefly, the bottoms of 24 well dishes were coated with 50 μl BD Matrigel Basement Matrix Phenol Red Free (BD Biosciences cat. #356237) and allowed to solidify at 37° C. 10^5 cells were suspended in 250 μl chilled medium containing either 10 ng/ml of TGF-b or vehicle and allowed to settle at 37° C. for 30 minutes. Chilled medium containing 10% of Matrigel was added by pipetting gently down the sidewall of the well and incubated at 37° C. for ten days changing top medium every second day. Colony counts were performed on the tenth day; averages were taken from three fields of view using a 10× objective. Experiment was repeated three times.

[5] = tested on: Akt; test: Western analysis of phospho-Akt in RL95-2 cells; details: RL95-2, PME-1 knocked down
Method: We observed a similar trend for the Akt signaling pathway. There was an increase in phosphorylation of Akt on threonine 308 (T308) when PME-1 was over-expressed compared to control. […] PME-1 over-expression specifically increases the phosphorylation of Akt on T308, but not serine 473 (S473).
as §1, with “Primary antibodies used were: P-Akt (Ser473), P-Akt (Thr308), pan-Akt, P-ERK (Thr202/204), total ERK (Cell Signaling Technologies), PME-1 (Santa Cruz), phospho-β-catenin (Ser45, Cell Signaling Technologies), phospho-β-catenin (Ser33/37/Thr41, Cell Signaling Technologies), β-catenin (Abcam), DcR2 (Abcam), and GAPDH (Abcam). All experiments were repeated several times with similar results.” left out

[6] = tested on: ECC-1 cells; test: Foci formation assay, ECC-1 cells; details: ECC-1 stable clones, with empty FLAG, PP2A, PP4 or PP6 over-expression, 10 days, vs shSCR
Method: FIG. 24 depicts results from a study in which stable clones of ECC-1 cells expressing non-targeting scrambled shRNA (shSCR, black bars) or shPPME-1 (white bars) (SEQ ID NO: 2) and were then transfected with FLAG empty vector, FLAG-PPP2CA, FLAG-PPP4C, or FLAG-PPP6C. Cells (3,000) were plated and were allowed to grow for 10 days. Colonies were then stained with crystal violet and counted. The control cells expressing shSCR and transfected with empty FLAG vector were normalized to 100% foci formation. […] Averages of 6 experiments are plotted and statistical significance was calculated with the Student's T test, where *p<0.05, **p<0.01, ***p<0.001.
We performed a foci formation analysis by transfecting: (i) empty FLAG vector, (ii) FLAG-PPP2CA, (iii) FLAG-PPP4C, or (iv) FLAG-PPP6C into ECC-1 cells that stably expressed either (i) shSCR (non-targeting shRNA, black bars) or (ii) shPPME1 (depletes PME-1 levels, white bars) (FIG. 24).
1,000 cells were plated in a six well tissue culture dish in selection media (to include 5 μg/ml puromycin) (InvivoGen). Cells were allowed to adhere and grow in a 5% CO2, 37° C. incubator for 10 to 14 days. Media was replaced every fourth day. Cells were stained with 1% crystal violet (Sigma Aldrich) for five minutes and rinsed with PBS. Colonies were counted and data is presented as the percentage of change compared to the control. […]

Substance: shRNA (SEQ ID NO: 2): lentiviral shRNA against PPME1, target sequence SEQ ID NO: 2 GCAGCGATTATTAGTAGAGTT, bp 289-309; hairpin SEQ ID NO: 8 (CCGGGCAGCGATTATTAGTAGAGTTCTCGAGAACTCTACTAATAATCGCTGCTTTTT; listed as Homo sapiens)
- phospho-ERK (Western) [1]: decrease in phospho-ERK
- decreased proliferation (phospho-histone H3 positive cells) [2]: ~30%
- SFRP1 expression [3]: significantly increased; also recorded: significant increase in SFRP1 expression
- colony number and size in Matrigel ([4]; RL95-2, −TGF-β, compared to control cells): fewer and smaller colonies
- decrease in colony formation ([4]; RL95-2 in Matrigel, 10 days, vs control cells): 50%
- phosphorylation of Akt (Western) [5]: decrease in phosphorylation of Akt
- foci formation ([6]; listed as shPPME1 (SEQ ID NO: 2)): significant decrease in foci formation
- foci formation ([6]; listed as shPPME-1 (SEQ ID NO: 2)): significant decrease in foci formed
